Data published in the supplement of paper PMC10290057.
Counter-ions that a name gives are not always drawn.

Tests used:
[1] = test system: HCT116; test: efficacy (fitted maximal change in viability relative to DMSO control); higher = less cytotoxic (negative = loss of viability); conditions: 48 h
[2] = test system: HCT116; test: AC50 cell viability (CellTiter-Glo); higher = less potent; conditions: 48 h
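For AC50 cell viability (CellTiter-Glo) in this document: HCT116 colorectal carcinoma cells screened at five concentrations per compound, luminescent viability scaled between DMSO wells and empty wells on each plate, curves fitted per compound.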
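For efficacy (fitted maximal change in viability relative to DMSO control) in this document: Luminescence-based viability readout, five doses per compound, normalized against on-plate DMSO and empty-well controls, followed by dose-response curve fitting for every drug.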

| SMILES | efficacy [1] | AC50 cell viability [2] |
| --- | --- | --- |
| CCNC(=O)c1noc(-c2cc(C(C)C)c(O)cc2O)c1-c1ccc(CN2CCOCC2)cc1 [NVP-AUY922] | -63.2% | 0.105 µM |
| COc1ccc(-c2ccc3ncc4c(c3c2)n(-c2ccc(N3CCNCC3)c(C(F)(F)F)c2)c(=O)n4C)cn1 [NVP-BGT226] | -117% | 0.295 µM |
| Cc1ccc(C(=O)Nc2cccc(C(F)(F)F)c2)cc1Nc1nc(-c2cccnc2)nc2c1cnn2C [NVP-BHG712] | -103% | 8.33 µM |
| Fc1cc(-c2cccc3ncc(-c4cnn(C5CCNCC5)c4)nc23)cc(F)c1CN1CCOCC1 [NVP-BSK805] | -91% | 8.33 µM |
| Cn1cc(-c2ccc3ncc(Cc4ccc5ncccc5c4)n3n2)cn1 [NVP-BVU-972] | -40.8% | 18.6 µM |
| C[S+](=O)([O-])N1CCC(NC(=O)c2[nH]ncc2NC(=O)c2c(Cl)cccc2Cl)CC1 [NVP-LCQ195] | -64.2% | 0.525 µM |
| CNC(=O)c1ccccc1Nc1nc(Nc2ccc(N3CCOCC3)cc2OC)ncc1Cl [NVP-TAE226] | -77.8% | 0.833 µM |
| CCC[S+](=O)([O-])c1nc(NC2CC2)cc(-c2ccc3c(ccn3C3CC(C)(C)NC(C)(C)C3)c2)n1 [NVS-CECR2-1] | -93.7% | 2.78 µM |
| COc1ccccc1N1CCN(CC(O)COc2cccc3ccccc23)CC1 (stereo not drawn) [Naftopidil] | -57.2% | 18.6 µM |
| CNC(=O)[C@H]1O[C@@H](n2cnc3c(NCc4cccc(I)c4)nc(Cl)nc32)[C@H](O)[C@@H]1O [Namodenoson] | -94.8% | 23.5 µM |
| CO[C@H]1CCC(O[C@H]2C[C@H]([C@]3(C)CC[C@]4(C[C@H](O)[C@@H](C)[C@@H]([C@@H](C)/C=C(\C)C(=O)[C@H](C)C[C@H](C)C(=O)[O-])O4)O3)O[C@]3(O[C@@H]([C@H]4O[C@@](O)(CO)[C@H](C)C[C@@H]4C)C[C@@H]3C)[C@@H]2C)O[C@@H]1C (stereo partly drawn) [Nanchangmycin] | -101% | 2.95 µM |
| CC(=O)c1cc2c(o1)C(=O)c1ccccc1C2=O [Napabucasin] | -93.8% | 0.934 µM |
| C=CC(=O)N1CC[C@@H](Oc2nc(Nc3ccc(N4CCC(N5CCN(C)CC5)CC4)cc3)c(C(N)=O)nc2CC)C1 [Naquotinib mesylate] | -103% | 3.23 µM |
| CC1(C)CCC(=C(CN2CCN(CC2)C3=CC=C(C=C3)C(=O)N[S+]([O-])(=O)C4=CC(=C(N[C@H](CCN5CCOCC5)CSC6=CC=CC=C6)C=C4)[S+]([O-])(=O)C(F)(F)F)\C1)/C7=CC=C(Cl)C=C7 [Navitoclax (ABT-263)] | -90.7% | 13.2 µM |
| Cc1c(O)cccc1C(=O)NC(CSc1ccccc1)C(O)CN1CC2CCCCC2CC1C(=O)NC(C)(C)C (stereo not drawn) [Nelfinavir] | -101% | 20.9 µM |
| COc1cccc2c1C(=O)c1c(O)c3c(c(O)c1C2=O)C[C@@](O)(C(=O)CO)CC3OC1CC(N2CCOC(OC)C2)C(O)C(C)O1 (stereo partly drawn) [Nemorubicin] | -66% | 0.0263 µM |
| CCOc1cc2ncc(C#N)c(Nc3ccc(OCc4ccccn4)c(Cl)c3)c2cc1NC(=O)/C=C/CN(C)C [Neratinib] | -72.5% | 2.35 µM |
| Cc1ccc(C(=O)OCc2ccc([C@@H](CN)C(=O)Nc3ccc4cnccc4c3)cc2)c(C)c1 [Netarsudil] | -108% | 8.11 µM |
| O=C(Nc1ccc([N+](=O)[O-])cc1Cl)c1cc(Cl)ccc1O [Niclosamide] | -90.8% | 1.05 µM |
| COC(=O)C/1=C(C)/N/C(=C(\C1C2=CC(=CC=C2)[N+]([O-])=O)C(=O)OCCCN3CCC(CC3)(C4=CC=CC=C4)C5=CC=CC=C5)C (stereo not drawn) [Niguldipine] | -98.1% | 8.33 µM |
| Cc1cn(-c2cc(NC(=O)c3ccc(C)c(Nc4nccc(-c5cccnc5)n4)c3)cc(C(F)(F)F)c2)cn1 [Nilotinib] | -46.8% | 1.66 µM |
| COC(=O)c1ccc2c(c1)NC(=O)/C2=C(\Nc1ccc(N(C)C(=O)CN2CCN(C)CC2)cc1)c1ccccc1 [Nintedanib] | -92.2% | 5.9 µM |
| NC(=O)c1cccc2cn(-c3ccc([C@@H]4CCCNC4)cc3)nc12 [Niraparib] | -92% | 18.6 µM |
| CCC[C@H](N[C@H]1CCc2cc(F)cc(F)c2C1)C(=O)Nc1cn(C(C)(C)CNCC(C)(C)C)cn1 [Nirogacestat] | -90.3% | 20.9 µM |
| CC(=O)Oc1ccccc1C(=O)Nc1ncc([N+](=O)[O-])s1 [Nitazoxanide] | -80.3% | 23.5 µM |
| O=[N+]([O-])c1ccc(O)c2ncccc12 [Nitroxoline] | -96.2% | 10.5 µM |
| COC(=O)Nc1nc2cc(C(=O)c3cccs3)ccc2[nH]1 [Nocodazole] | -65.7% | 0.166 µM |

| SMILES | efficacy [1] | AC50 cell viability [2] |
| --- | --- | --- |
| COc1ccc2c(c1OC)C(=O)O[C@H]2[C@H]1c2c(cc3c(c2OC)OCO3)CCN1C [Noscapine] | -55.1% | 14.8 µM |
| COC1=CC=C(C(=C1)OC(C)C)C/2=N/[C@@H]([C@@H](N2C(=O)N3CCNC(=O)C3)C4=CC=C(Cl)C=C4)C5=CC=C(Cl)C=C5 [Nutlin-3] | -98.3% | 23.5 µM |
| NC1CCC(N[C@@H]2C[C@H]2c2ccccc2)CC1 (stereo partly drawn) [ORY-1001] | -36% | 16.6 µM |
| COc1cccc2cc(-c3nc([C@H]4CC[C@H](C(=O)O)CC4)n4ncnc(N)c34)[nH]c12 [OSI-027] | -94.5% | 11.8 µM |
| C#Cc1cccc(Nc2ncnc3cc(OCCOC)c(OCCO)cc23)c1 [OSI-420] | -76.6% | 6.61 µM |
| NC(=O)c1c(OCc2c(F)cc(Br)cc2F)nsc1NC(=O)NCCCCN1CCCC1 [OSI-632] | -100% | 23.5 µM |
| O=C(Nc1ccc(OC(F)(F)F)cc1)c1sccc1NCc1ccnc2ccccc12 [OSI-930] | -77.4% | 10.5 µM |
| CNC(=O)CCc1cc(-c2ccc(-c3ccc(C(F)(F)F)cc3)cc2)n(-c2ccc(N3CCNCC3)cc2)n1 [OSU-T315] | -90.4% | 6.61 µM |
| Cc1cc(O)c(-c2ccc([C@@H](C)CN(C)C)cc2)c2c1[nH]c(=O)c1sccc12 [OTS964] | -63.1% | 0.0295 µM |
| CC(=O)c1cnc2ccc(-c3cc(Cl)c(O)c(Cl)c3)nc2c1N[C@H]1CC[C@H](CN(C)C)CC1 [OTS-167] | -70.5% | 0.0539 µM |
| Nc1nccn2c1c(-c1cc3cccc(Cl)c3[nH]1)nc2[C@H]1CC[C@H](C(=O)O)CC1 [OXA-01] | -65.8% | 9.34 µM |
| COC1=CC(c2cc3ccccc3[nH]2)=N/C1=C/c1[nH]c(C)cc1C [Obatoclax] | -90% | 1.66 µM |
| CC[C@H]1/C=C\C=C/C[C@@H](C)[C@H](O)[C@@](C)(O)C(=O)[C@@H](C)[C@H](O)[C@@H](C)C(=O)[C@@H](C)[C@H](O)[C@@H](C)/C=C/C(=O)O[C@@H]2[C@H](C)[C@H](CC1)O[C@]1(CC[C@H](C)[C@H](C[C@@H](C)O)O1)[C@H]2C [Oligomycin A] | -112% | 16.6 µM |
| C=CC(=O)Nc1cccc(Oc2nc(Nc3ccc(N4CCN(C)CC4)cc3)nc3ccsc23)c1 [Olmutinib] | -98.2% | 8.33 µM |
| COC(=O)C[C@](O)(CCCC(C)(C)O)C(=O)O[C@@H]1C(OC)=CC23CCCN2CCc2cc4c(cc2[C@H]13)OCO4 (stereo partly drawn) [Omacetaxine mepesuccinate] | -68.3% | 0.0235 µM |
| CC1(C)CC[C@@]2(CC[C@]3(C)[C@@H]([C@@H]2C1)C(=O)\C=C\4[C@@]3(C)CC[C@H]5C(C)(C)C(=O)\C(=C/[C@]45C)C#N)NC(=O)C(C)(F)F [Omaveloxolone] | -91.5% | 5.9 µM |
| COc1ccc(/C=C\c2cc(OC)c(OC)c(OC)c2)cc1NC(=O)[C@H](N)CO [Ombrabulin] | -62.9% | 0.148 µM |
| CC(C)c1cc(C(=O)N2Cc3ccc(CN4CCN(C)CC4)cc3C2)c(O)cc1O [Onalespib] | -54.3% | 0.118 µM |
| COC[C@H](NC(=O)c1cnc(C)s1)C(=O)N[C@@H](COC)C(=O)N[C@@H](Cc1ccccc1)C(=O)[C@@]1(C)CO1 [Oprozomib] | -88.1% | 0.0742 µM |
| Cc1[nH]c(/C=C2\C(=O)Nc3ccccc32)c(C)c1CCC(=O)O [Orantinib] | -49.3% | 23.5 µM |
| C=C1C(=O)[C@@]23C(CC[C@@H]1[C@H]2O)[C@@]12CO[C@]3(O)[C@@H](O)[C@@H]1C(C)(C)CC[C@@H]2O (stereo partly drawn) [Oridonin] | -98.8% | 13.2 µM |
| C=CC(=O)Nc1cc(Nc2nccc(-c3cn(C)c4ccccc34)n2)c(OC)cc1N(C)CCN(C)C [Osimertinib mesylate] | -103% | 8.33 µM |
| C[C@](O)(COc1ccc(C#N)cc1)C(=O)Nc1ccc(C#N)c(C(F)(F)F)c1 [Ostarine] | -91.5% | 20.9 µM |
| CCNC1(C(N)=O)CCN(c2ncnc3c2nc(-c2ccccc2Cl)n3-c2ccc(Cl)cc2)CC1 [Otenabant] | -97.3% | 23.5 µM |
| O=C1[O][Pt]2([NH]C3CCCCC3[NH]2)[O]C1=O (stereo not drawn) [Oxaliplatin] | -42.2% | 9.11 µM |
| O=C(/C=C/C#Cc1cccc(N[S+](=O)([O-])c2ccccc2)c1)NO [Oxamflatin] | -99.5% | 1.02 µM |
| COC(=O)Nc1nc2cc([S+]([O-])c3ccccc3)ccc2[nH]1 (stereo not drawn) [Oxfendazole] | -47.9% | 6.61 µM |
